One experiment concerns WT VSMC migration. Description: Transwell migration assay to TNF-α. Type of experiment: cell-based, mouse. As to conditions: CalC pretreatment 30 minutes, 5 hours migration. The protocol: WT or Nox1^−/y C57 mouse aortic VSMCs were pretreated with CalC or DMSO (vehicle) for 30 minutes, washed once with PBS, and cells were detached with trypsin, which was quenched with trypsin inhibitor. Cells were transferred to a conical tube, centrifuged at 500 g for 5 minutes. The SNT was aspirated, and cells were resuspended in 125 μL cell culture medium containing no FBS. Cell counts were obtained on a Beckman Z1 Coulter Particle Counter. Cells suspensions were diluted to a concentration of 1,000 cells/μL. 50 μL of the cell suspension was added to the upper chamber of a Costar Transwell Permeable Support (8.0 μm polycarbonate membrane, 6.5 mm insert). 500 μl medium containing no FBS with or without TNF-α was added to the lower chamber. […] Cells were fixed in 4% paraformaldehyde, membranes were removed from support with a scalpel and mounted in Vectashield plus DAPI, cover-slipped and five random fields from each membrane were imaged at 20× and the number of cells migrated to the bottom of the Transwell was counted. […]
500 μL Opti-MEM was added to a 60 mm gelatin-coated cell culture plate. […] Cells were detached by use of trypsin, which was quenched in 10% FBS containing no antibiotics, centrifuged at 500 g for 5 minutes, resuspended in 5 mL 10% FBS without antibiotics and counted. […] Cells were then prepared for analysis by WB, DCF fluorescence or migration assay.

In experiment [1] the test system is NADPH oxidase activity in VSMC membrane fractions. The experiment in a line: ROS detection by lucigenin-enhanced chemiluminescence. Type of experiment: cell-based, rat. As to conditions: 30 minute pre-incubation, 100 nM DPI or 100 μM CalC, TNF-α 10 ng/mL 10 minutes. The protocol:
A7r5 rat aortic smooth muscle cells were seeded at 75% confluence in 10% FBS medium, infected with AdNox1GFP for 48 hours, serum-starved in 0.2% FBS medium for 24 hours. Cells were then subjected to a 30 minute pre-incubation with 100 nM DPI or 100 μM CalC or DMSO, then treated with 10 ng/mL TNF-α for 10 minutes, washed three times in cold PBS, and homogenized in Homogenization Buffer (0.25 M sucrose, 10 mM triethanolamine, 4% protease inhibitor cocktail, 0.1 M EDTA, pH 7.4) with a Tissue Tearor. Lucigenin was then added to a final concentration of 5 μM. Samples were then analyzed by a FB12 Chemiluminometer every 10 seconds for 5 minutes. Then NADPH was added to a final concentration of 100 μM and readings were taken for another 5 m. Average baseline value was subtracted from the average NADPH-stimulated value.

Experiment [2] concerns TNF-α-induced Nox1-dependent ROS production in WT VSMCs. The experiment in a line: ROS detection by CM-H2DCF fluorescence in VSMCs. The experiment is classed as cell-based, mouse. As to conditions: CalC pretreatment, TNF-α 10 ng/mL 30 minutes. The protocol: C57 WT or Nox1^−/y VSMCs were seeded on glass chamber slides at 75% confluence, serum-starved in cell culture medium containing no FBS for 24 h, washed in phenol red-free DMEM, and incubated in 10 μM CM-H2DCFDA for 30 m, pretreated with CalC or DMSO, and treated with 10 ng/mL TNF-α for 30 minutes. The cells were then washed 3×100 μL cold PBS, fixed with 2% paraformaldehyde for 15 minutes, washed twice with PBS, incubated in 1 μM To-Pro-3 for 5 minutes in dark, and washed twice with PBS. The chambers were removed and cells were mounted in Vectashield and imaged by confocal microscopy.
500 μL Opti-MEM was added to a 60 mm gelatin-coated cell culture plate. To this siPKC-β or siControl was added (final concentration 200 nM), plus 12 μL RNAiMax. Plates were rocked and incubated for 20 minutes. Cells were detached by use of trypsin, which was quenched in 10% FBS containing no antibiotics, centrifuged at 500 g for 5 minutes, resuspended in 5 mL 10% FBS without antibiotics and counted. Cells were added to plate for a seeding density of 75%, and medium was added to a final volume of 3 mL. Cells were incubated for 5 hours at 37° C., then medium was changed to 10% FBS. The next day, cells were serum starved in medium containing no FBS for 24 hours. Cells were then prepared for analysis by WB, DCF fluorescence or migration assay.

Experiment [3] deals with Nox1 phosphorylation in A7r5 rat aortic VSMCs. Description: TNF-α-stimulated Nox1 phosphorylation, anti-p22phox IP / anti-STY Western blot, A7r5 VSMCs. The experiment is classed as cell-based. To be noted: CalC pretreatment 100 nM, TNF-α 10 ng/mL 10 minutes. As to the method:
Equal volumes of samples were pre-cleared with Protein G Dynabeads (10 μL/1.5 mg protein in lysate) for 30 minutes at 4° C., end-over-end rotation, followed by a quick spin at high speed, then placed on a magnetic rack for 1 minute. SNT was removed to a new tube on ice. The p22^phox/Nox1 complex was immunoprecipitated using anti-p22^phox antibody C-17 (1 μg/500 μg protein in lysate) and rotated for 45 minutes at 4° C. (Hanna et al., 2004). Next, 20 μL Protein G Dynabeads was added to each sample and rotated for 20 minutes at 4° C., followed by a quick spin at high speed, then placed on a magnetic rack 1 m. SNT was moved to a new tube on ice and frozen for later analysis. The Dynabead pellet was washed three times with 200 μL NP40 buffer, followed by addition of 15 μL twice with sample buffer (4% SDS, 20% glycerol, 10% 2-mercaptoethanol, 0.004% bromphenol blue, 0.125 M Tris HCl, pH 6.8). […] Samples were then analyzed by WB.
One quarter volume of 5× sample buffer (6 g SDS, 40% glycerol, 30% 2-mercaptoethanol, 383.3 mg dithiothreitol, 372 mg EDTA, 378.3 mg Tris, 50 mg bromphenol blue in 50 ml ddH2O, pH 6.8) was added to lysates. […] Phosphorylation of Nox1 residues was determined utilizing a phospho-serine/threonine/tyrosine (p-STY) antibody that reacts with these residues only under phosphorylated conditions (Zhang et al., 2010, Chen et al., 2006). […]

Experiment [4] concerns the target T1, NoxA1 activation domain (AD) peptide LEPMDFLGKAKVV (Homo sapiens, UniProt Q86UR1).
T1 construct: purchased ProImmune
Description: Isothermal titration calorimetry peptide interaction. The experiment is classed as binding. As to conditions: ITC, 25° C., pH 7.4, n=3 independent experiments, ± standard deviation; read-out: Affinity (Kd) for the interaction with NoxA1 AD peptide. The protocol:
The affinity of the interaction between non-phosphorylated and phosphorylated Nox1 and NoxA1 was determined by isothermal titration calorimetry (ITC). Phosphorylated or non-phosphorylated peptides corresponding to amino acids KLKTQKIYF (SEQ ID NO:9) of Nox1 and a peptide corresponding to amino acids LEPMDFLGKAKVV (SEQ ID NO:10) of NoxA1 peptides were purchased from ProImmune. The peptides were resuspended in 20 mM Na2HPO4, 100 mM […], pH 7.4 to a final concentration of 800 μM (Nox1) and 20 μM (NoxA1). The peptides were degassed and ITC measurements recorded using a MicroCal VP-ITC System (GE Healthcare). 21 injections of Nox1 peptides into NoxA1 peptide were used, with 240 s spacing between events. The chamber was kept under constant stirring at 350 rpm and all experiments were performed at 25° C. […] The constant heat of dilution, as determined by the average of the last 3-5 injections, was subtracted and the data are analyzed using the single site binding model provided in the ITC analysis package. The values for affinity and stoichiometry from three experiments were averaged and shown±standard deviation.

These results are taken from patent US9951102B2, “Peptide inhibitor of Nox1 NADPH oxidase” (University of Iowa Research Foundation, priority 2014, dated 2018).

Where no end group is shown, it is not given here.

On to `COc1c(C[C@@H](C)OC(=O)Oc2ccc(O)cc2)c2c3c(C[C@@H](C)OC(=O)c4ccccc4)c(OC)c(=O)c4c(O)cc(OC)c(c5c(OC)cc(O)c(c1=O)c52)c43` [CalC, Calphostin C], for which, in the experiment with WT VSMC migration, the “Migration of WT VSMCs to TNF-α” value is reported as “blocked”. The “TNF-α-primed NADPH oxidase activity (lucigenin-enhanced chemiluminescence)” value in experiment [1] is “completely abolished”. Besides, in experiment [2], the “Nox1-dependent ROS production (CM-H2DCF fluorescence)” value is on record as “abrogated”. Moreover, in experiment [3], the “TNF-α-stimulated Nox1 phosphorylation” value was “inhibited”.
For the compound `[Cl-].c1ccc2c(c1)[I+]c1ccccc1-2` [DPI, Diphenyleneiodoium chloride], in experiment [1], the “TNF-α-primed NADPH oxidase activity (lucigenin-enhanced chemiluminescence)” value was “completely abolished”.
As to KLKTQKIYF [Nox1 peptide, KLKTQKIYF], in experiment [4], the Kd (usually the concentration at which binding is half-saturated) is above 100 µM.
